Measured values taken from US20260216400A1, “CELL-[…] MOLECULE IMPARTING PROTEIN ADHESION […] CELLS” (THE UNIVERSITY OF OSAKA, priority 2023, published 2026).

How the values were obtained:
Experiment in all cases: Binding of FITC-labeled collagen-binding peptides to coated wells (Example 6)
laminin = conditions: 37° C., 3 hours
Protocol: (§1) The selectivity of collagen-binding peptides for components of the extracellular matrix was investigated. […] After washing, the fluorescence intensity was measured using a confocal laser scanning microscope.

type IV collagen = conditions: 37° C., 3 hours
Protocol: as §1

type I collagen = type I collagen (Homo sapiens, UniProt P02452+P08123)
Chain of type I collagen (P08123 80-1119): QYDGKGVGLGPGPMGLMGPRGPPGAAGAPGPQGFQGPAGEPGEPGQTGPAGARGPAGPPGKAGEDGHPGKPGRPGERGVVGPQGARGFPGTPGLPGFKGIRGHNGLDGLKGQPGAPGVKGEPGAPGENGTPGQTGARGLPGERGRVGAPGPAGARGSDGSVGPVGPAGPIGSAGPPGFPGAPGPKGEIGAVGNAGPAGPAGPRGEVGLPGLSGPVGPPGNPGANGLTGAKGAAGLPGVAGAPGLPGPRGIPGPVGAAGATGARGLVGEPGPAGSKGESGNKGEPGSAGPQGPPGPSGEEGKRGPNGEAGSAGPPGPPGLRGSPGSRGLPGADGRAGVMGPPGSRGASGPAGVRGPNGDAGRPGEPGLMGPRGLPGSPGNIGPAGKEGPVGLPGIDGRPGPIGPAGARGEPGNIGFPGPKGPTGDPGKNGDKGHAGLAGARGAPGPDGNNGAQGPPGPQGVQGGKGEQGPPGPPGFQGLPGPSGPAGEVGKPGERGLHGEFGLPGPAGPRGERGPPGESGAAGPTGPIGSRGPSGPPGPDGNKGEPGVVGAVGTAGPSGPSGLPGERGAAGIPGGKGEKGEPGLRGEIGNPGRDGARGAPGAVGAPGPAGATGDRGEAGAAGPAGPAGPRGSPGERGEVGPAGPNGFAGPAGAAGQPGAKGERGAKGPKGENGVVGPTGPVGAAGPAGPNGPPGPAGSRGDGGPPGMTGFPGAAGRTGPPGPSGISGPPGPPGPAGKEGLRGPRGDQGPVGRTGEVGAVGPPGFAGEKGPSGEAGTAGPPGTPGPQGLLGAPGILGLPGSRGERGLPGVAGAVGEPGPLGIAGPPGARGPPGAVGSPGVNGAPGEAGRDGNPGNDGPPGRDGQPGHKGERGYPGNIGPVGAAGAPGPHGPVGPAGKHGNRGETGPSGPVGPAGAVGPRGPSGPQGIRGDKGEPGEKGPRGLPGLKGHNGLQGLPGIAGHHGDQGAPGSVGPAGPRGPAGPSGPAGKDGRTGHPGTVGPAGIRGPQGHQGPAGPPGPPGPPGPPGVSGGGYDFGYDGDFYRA
Chain of type I collagen (P02452 162-1218): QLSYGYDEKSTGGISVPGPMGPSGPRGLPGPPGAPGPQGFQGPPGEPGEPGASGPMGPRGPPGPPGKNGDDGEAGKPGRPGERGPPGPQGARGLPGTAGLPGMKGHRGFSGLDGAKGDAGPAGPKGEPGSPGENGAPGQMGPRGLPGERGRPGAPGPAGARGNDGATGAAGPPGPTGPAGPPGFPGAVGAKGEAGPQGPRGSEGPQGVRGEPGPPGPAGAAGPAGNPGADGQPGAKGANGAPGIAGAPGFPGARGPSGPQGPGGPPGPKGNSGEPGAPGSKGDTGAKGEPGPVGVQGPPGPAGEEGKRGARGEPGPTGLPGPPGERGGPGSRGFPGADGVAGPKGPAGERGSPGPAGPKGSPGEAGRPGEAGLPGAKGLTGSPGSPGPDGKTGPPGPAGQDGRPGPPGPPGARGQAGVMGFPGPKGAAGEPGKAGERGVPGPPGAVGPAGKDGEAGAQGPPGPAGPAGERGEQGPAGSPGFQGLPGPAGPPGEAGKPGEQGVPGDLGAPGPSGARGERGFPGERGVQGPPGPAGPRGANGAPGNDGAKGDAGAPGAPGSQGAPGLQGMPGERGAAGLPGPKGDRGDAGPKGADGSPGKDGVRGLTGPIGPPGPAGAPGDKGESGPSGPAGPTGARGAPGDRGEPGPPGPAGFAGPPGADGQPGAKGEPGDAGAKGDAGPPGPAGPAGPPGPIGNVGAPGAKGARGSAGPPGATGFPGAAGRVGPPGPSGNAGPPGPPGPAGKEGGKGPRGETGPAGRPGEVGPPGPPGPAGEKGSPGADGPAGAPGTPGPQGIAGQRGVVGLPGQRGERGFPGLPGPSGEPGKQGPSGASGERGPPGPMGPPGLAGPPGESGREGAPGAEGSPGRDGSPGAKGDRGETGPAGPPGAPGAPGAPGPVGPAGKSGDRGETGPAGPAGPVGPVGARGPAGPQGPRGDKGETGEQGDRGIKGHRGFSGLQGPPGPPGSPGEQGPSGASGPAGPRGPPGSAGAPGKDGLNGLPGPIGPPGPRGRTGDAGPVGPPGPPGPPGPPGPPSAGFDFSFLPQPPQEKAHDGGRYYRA

Row | Substance | binding to laminin (fluorescence intensity) (laminin) | binding to type IV collagen (fluorescence intensity) (type IV collagen) | fluorescence intensity compared between peptides (type I collagen; 100 μM (box in FIG. 6), type I collagen, type IV collagen, laminin wells) | binding to type I collagen (fluorescence intensity) (type I collagen; coated wells, 37° C., 3 hours) | selectivity for components of the extracellular matrix (order) (type I collagen; type I collagen, type IV collagen, laminin)
1 | TKKTLRT | in a concentration-dependent manner | in a concentration-dependent manner |  |  | 
2 | SYIRIADNTNIT | in a concentration-dependent manner | in a concentration-dependent manner | stronger than that of TKKTLRT | in a concentration-dependent manner | type I collagen>type IV collagen>laminin
